We go through three compounds from patent US20230339991A1, “HYPOXIA-ACTIVATED DNA ALKYLATING AGENT AND MEDICAL USE THEREOF” (ASCENTAWITS PHARMACEUTICALS, LTD., priority 2020, published 2023).

What is called IC50 is the concentration that inhibits the measured activity by half. A high value points to weaker potency in that assay.

One data set concerns NCI-H1944. Kind of data set: Cytotoxicity, NSCLC cell line NCI-H1944. The data set is classed as cell-based. As to conditions: Homo sapiens. The protocol: (§1) Compounds were exposed at various concentrations for 72 hours, followed by a wash step. Fresh medium was added for growth. The cell was stained to determine the cell survival rate and compared with controls treated with medium only.
(§2) In particular, exponentially grown cells were inoculated in 96-well plates at a density of 2×10^3 cells/100 μl/well and incubated for 24 hours at 37° C. and under the conditions of 5% CO2, 95% air and 100% relative humidity before addition of 99 μl of culture solution. The compounds were dissolved in 100% DMSO at 200 times of the desired final test concentration. When the drug was added, an aliquot of 1 μl of the compound at the specified concentration was added to microwells already containing 199 μl of medium to obtain the reported final drug concentration. After adding the drug, plates were incubated for an additional 72 hours at 37° C., 5% CO2, 95% air and 100% relative humidity. The cell assay plate was left to balance for 30 minutes at room temperature and 100 μL of medium was removed from per well. 100 μl CTG reagent (CelltiterGlo kit) was added into each well. The plate was placed on a fast shaker and shaked for 2 min, and kept in dark at room temperature for 30 min. The chemiluminescence signal value was read by Envision instrument. […]

A further data set concerns NCI-H1563. Kind of data set: Cytotoxicity, NSCLC cell line NCI-H1563. Format: cell-based. The note with it: Homo sapiens. How it is done: as §1, §2
A further data set deals with CAL12T. Kind of data set: Cytotoxicity, NSCLC cell line CAL12T. Format: cell-based. As to conditions: Homo sapiens, CAL-12T. How it is done: as §1, §2
For the next data set, the system named is NCIH2106. Kind of data set: Cytotoxicity, NSCLC cell line NCIH2106. The note with it: Homo sapiens. Format: cell-based. The protocol:
as §1, §2

The test system of another data set is NCI-H23. Kind of data set: Cytotoxicity, NSCLC cell line NCI-H23. The data set is classed as cell-based. The note with it: Homo sapiens. The protocol:
as §1, §2

The next data set concerns NCI-H522. Kind of data set: Cytotoxicity, NSCLC cell line NCI-H522. As to conditions: Homo sapiens. The data set is classed as cell-based. How it is done: as §1, §2
For another data set, the system named is NCI-H2110. Kind of data set: Cytotoxicity, NSCLC cell line NCI-H2110. Format: cell-based. As to conditions: Homo sapiens. The protocol: as §1, §2
In a further data set the test system is NCI-H1792. Kind of data set: Cytotoxicity, NSCLC cell line NCI-H1792. Format: cell-based. The note with it: Homo sapiens. The protocol: as §1, §2
Another data set deals with AsPC-1. Kind of data set: Cytotoxicity, pancreatic cancer PA cells AsPC-1. As to conditions: Homo sapiens, ASPC1. Format: cell-based. How it is done:
as §1, §2

For another data set, the system named is HPAF-II. Kind of data set: Cytotoxicity, pancreatic cancer PA cells HPAF-II. Format: cell-based. The note with it: Homo sapiens. How it is done:
as §1, §2

Another data set deals with KP-2. Kind of data set: Cytotoxicity, pancreatic cancer PA cells KP-2. The data set is classed as cell-based. As to conditions: Homo sapiens. The protocol: as §1, §2
The test system of another data set is CFPAC1. Kind of data set: Cytotoxicity, pancreatic cancer PA cells CFPAC1. The data set is classed as cell-based. As to conditions: Homo sapiens, CFPAC-1. The protocol: as §1, §2
Another data set relates to KP-3. Kind of data set: Cytotoxicity, pancreatic cancer PA cells KP-3. Format: cell-based. The note with it: Homo sapiens. How it is done:
as §1, §2

The test system of another data set is Capan-1. Kind of data set: Cytotoxicity, pancreatic cancer PA cells Capan-1. The data set is classed as cell-based. As to conditions: Homo sapiens. How it is done:
as §1, §2

For the next data set, the system named is Panc 02.03. Kind of data set: Cytotoxicity, pancreatic cancer PA cells Panc 02.03. Format: cell-based. The note with it: Homo sapiens. How it is done: as §1, §2
The test system of another data set is MIA PaCa-2. Kind of data set: Cytotoxicity, pancreatic cancer PA cells MIA PaCa-2. As to conditions: Homo sapiens. The data set is classed as cell-based. The protocol: as §1, §2
The next data set has as its system PL45. Kind of data set: Cytotoxicity, pancreatic cancer PA cells PL45. The data set is classed as cell-based. The note with it: Homo sapiens. How it is done: as §1, §2
A further data set relates to Panc 10.05. Kind of data set: Cytotoxicity, pancreatic cancer PA cells Panc 10.05. The data set is classed as cell-based. As to conditions: Homo sapiens, Panc1005. The protocol: as §1, §2
The test system of data set [1] is HuPrime model GA6201 human gastric cancer subcutaneous transplantation PDX tumor. Kind of data set: GA6201 human gastric cancer subcutaneous PDX model. The data set is classed as in vivo, BALB/c nude mice. The protocol:
Then the dose was changed to 10 mg/kg by intraperitoneal injection administration daily for 4 days (QD×4, Day14-Day17). The dose and mode of administration were then changed to 20 mg/kg via tail vein injection for one day (QD×1, Day18). After drug withdrawal for 10 days, the dose was changed again, and 50 mg/kg was administered via tail vein injection once a week for two weeks QW×2 (Day28, Day35).
The tumor volumes of mice from different groups were measured at different days and the average values were obtained.

The subject of another data set is H460 cancer cells. Kind of data set: Cytotoxicity on H460 cancer cells, 72 h exposure, CTG. Format: cell-based. As to conditions: Homo sapiens, NCI-H460. The protocol:
The quantification value IC50 for cytotoxicity of a human tumor cell line in vitro was used to compare the cancer cell proliferation inhibition of compounds
as §1
In particular, exponentially grown cells were inoculated in 96-well plates at a density of 2×10^3 cells/100 μl/well and incubated for 24 hours at 37° C. and under the conditions of 5% CO2, 95% air and 100% relative humidity before addition of 99 μl of culture solution. The compounds were dissolved in 100% DMSO at 200 times of the desired final test concentration. When the drug was added, an aliquot of 1 μl of the compound at the specified concentration was added to microwells already containing 199 μl of medium to obtain the reported final drug concentration. After adding the drug, plates were incubated for an additional 72 hours at 37° C., 5% CO2, 95% air and 100% relative humidity. The cell assay plate was left to balance for 30 minutes at room temperature and 100 μL of medium was removed from per well. 100 μl CTG reagent (CelltiterGlo kit) was added into each well. […] The chemiluminescence signal value was read by Envision instrument.

The test system of data set [2] is human liver cancer HepG2 subcutaneous xenograft. Kind of data set: Human liver cancer HepG2 subcutaneous xenograft model. The data set is classed as in vivo, BALB/c nude mice. As to conditions: for relative tumor inhibition rate TGI (%): QW×3, tail vein, Day 45. The text has this:
BALB/c nude mice were subcutaneously inoculated with human liver cancer HepG2 cells to establish human liver cancer subcutaneous transplantation tumor model.
On the technique in general: Xenograft models place foreign cells or tissue in a host animal.

The subject of data set [3] is human lung cancer NCI-H460-Luc2 intracranial transplantation tumor. As to conditions: for mean biofluorescence value / TGI: 11 days after grouping. How it is done:
BALB/c nude mice were inoculated intracranially with human lung cancer NCI-H460-Luc2 cells to establish human lung cancer intracranial transplantation tumor model. […] The relative tumor inhibition rate TGI (%) was calculated based on tumor biofluorescence value and the efficacy was evaluated.

A further data set concerns ICR mice. Kind of data set: Maximal tolerance dose (MTD) test, compound B. The data set is classed as in vivo. The note with it: 40 mg/kg group; i.v. QD×5. How it is done:
18 ICR mice, 9 females/9 males, were randomly divided into compound B 10 mg/kg group, 20 mg/kg group and 40 mg/kg group according to gender and body weight, with 3 females/3 males in each group. […] It was administered once a day for 5 days, and recovered for 2 weeks after the last administration. The animals were closely observed for 2 h after administration on the administration day and once a day in the morning and once in the afternoon on the non-administration day. Body weight and dietary intake were measured twice a week during the test period. Dead animals and all surviving animals after 14 days from the last administration were subjected to autopsy. The autopsy was performed on the pathological organs, and histopathological examination of the pathological organs was performed.

Read-outs that look alike come from different tables or passages of the source.

In the case of `O=[N+]([O-])c1ccc(C(OP(=O)(N2CC2)N2CC2)C(F)(F)F)c2ccccc12` (racemic) [Compound A], the IC50 with NCI-H1944 was determined as 0.538 µM; in the data set with NCI-H1563, 4.45 µM; in the data set with CAL12T, 30.5 µM; in the data set with NCIH2106 it was 14.8 µM; in the data set with NCI-H23 it was 6.41 µM; in the data set on NCI-H522, 19.2 µM. Besides, the IC50 is 0.382 µM with NCI-H2110; 4.79 µM in the data set with NCI-H1792; 12.6 µM in the data set with AsPC-1; 26.1 µM in the data set with HPAF-II; 29.7 µM in the data set with KP-2; 2.86 µM in the data set on CFPAC1. Also, the IC50 in the data set with KP-3 was determined as 26.2 µM; in the data set with Capan-1, 5.97 µM; with Panc 02.03, 45.7 µM; with MIA PaCa-2, 6.9 µM; with PL45, 17.1 µM; in the data set on Panc 10.05 it was 27.7 µM. The tumor volume is recorded as 121.79 mm^3 in data set [1] (Group 06, 5-50 mg/kg regimen, day 3); 153.46 mm^3 in data set [1] (Group 06, 5-50 mg/kg regimen, day 10); 191.17 mm^3 in [1] (Group 06, 5-50 mg/kg regimen, day 14); 280.86 mm^3 in data set [1] (Group 06, 5-50 mg/kg regimen, day 28); 300.46 mm^3 in data set [1] (Group 06, 5-50 mg/kg regimen, day 42); 94.24 mm^3 in [1] (Group 06, 5 then 10 mg/kg i.p., 20 and 50 mg/kg i.v. (Table 10), day 0).
In the data set on H460 cancer cells, `O=[N+]([O-])c1ccc([C@@H](OP(=O)(N2CC2)N2CC2)C(F)(F)F)c2ccccc12` (single isomer, unassigned) [Compound C] yielded an IC50 of 0.0769 µM. In addition, the cure rate in [2] (20 mg/kg (Group 5)) and in data set [2] (40 mg/kg (Group 6)) was 20% each time. The “relative tumor inhibition rate TGI (%)” value in data set [2] (20 mg/kg) amounted to 33.10%; in data set [2] (40 mg/kg) it was 75.59%. Moreover, the mean biofluorescence value in data set [3] (10 mg/kg tail vein QW×3) was 7.07E+05 photon/second; in [3] (20 mg/kg tail vein QW×3) it was 1.79E+05 photon/second; in data set [3] (40 mg/kg tail vein QW×3) it was 1.04E+05 photon/second. Further, the TGI in data set [3] (10 mg/kg tail vein) is given as 99.82%; in data set [3] (20 mg/kg tail vein), 100.03%; in [3] (40 mg/kg tail vein) it was 100.05%. For the same compound, the tolerability entry in data set [3] (single drug, 10-40 mg/kg) is “well tolerated”.
In the case of `O=[N+]([O-])c1ccc([C@H](OP(=O)(N2CC2)N2CC2)C(F)(F)F)c2ccccc12` [Compound B], in the data set with ICR mice, the animal deaths result is “Three of the six”.
